Measurements as given in ChEMBL document CHEMBL4414679, “Discovery of 4,6-pyrimidinediamine derivatives as novel dual EGFR/FGFR inhibitors aimed EGFR/FGFR1-positive NSCLC” (Eur J Med Chem, 2020).
The source made the active and inactive calls. The calls are words filed in the database; no cut-off is given here.

Assays:
[1] = molecular target: Fibroblast growth factor receptor 4 (Homo sapiens) (UniProt P22455); experiment: Inhibition of N-terminal GST tagged human FGFR4 cytoplasmic domain (460 to 802 AA) expressed in baculovirus at 10 uM using FAM-labelled peptide as substrate pre-incubated for 10 mins followed by substrate addition by mobility shift assay relative to control
Fibroblast growth factor receptor 4 (Homo sapiens), sequence (P22455 22-802 limits assumed): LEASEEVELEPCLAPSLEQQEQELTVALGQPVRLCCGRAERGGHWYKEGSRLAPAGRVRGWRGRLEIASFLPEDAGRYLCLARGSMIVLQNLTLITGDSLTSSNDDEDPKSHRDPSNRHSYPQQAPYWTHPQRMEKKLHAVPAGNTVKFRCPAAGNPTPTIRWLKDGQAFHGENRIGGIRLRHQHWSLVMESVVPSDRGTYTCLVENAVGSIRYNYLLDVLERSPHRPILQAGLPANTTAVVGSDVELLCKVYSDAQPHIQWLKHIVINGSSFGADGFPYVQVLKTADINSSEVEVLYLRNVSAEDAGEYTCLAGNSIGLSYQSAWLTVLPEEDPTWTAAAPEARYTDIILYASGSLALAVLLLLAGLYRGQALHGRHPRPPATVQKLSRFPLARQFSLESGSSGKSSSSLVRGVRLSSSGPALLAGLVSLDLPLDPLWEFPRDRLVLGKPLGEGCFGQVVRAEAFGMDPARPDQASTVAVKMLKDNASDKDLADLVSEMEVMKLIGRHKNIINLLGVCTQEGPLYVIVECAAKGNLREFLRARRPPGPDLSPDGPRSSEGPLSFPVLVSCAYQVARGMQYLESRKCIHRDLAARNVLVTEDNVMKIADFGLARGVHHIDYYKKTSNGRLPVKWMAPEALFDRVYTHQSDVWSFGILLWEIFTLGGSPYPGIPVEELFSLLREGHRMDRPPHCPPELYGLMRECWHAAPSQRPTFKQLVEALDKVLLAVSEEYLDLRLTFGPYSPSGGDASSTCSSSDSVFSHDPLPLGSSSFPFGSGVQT

[2] = molecular target: T1, Fibroblast growth factor receptor 1 (Homo sapiens, UniProt P11362); experiment: Inhibition of FGF-induced FGFR1 phosphorylation in serum-starved human H520 cells upto 10 uM incubated for 1 hr by Western blot analysis
T1 sequence (P11362 22-822 limits assumed): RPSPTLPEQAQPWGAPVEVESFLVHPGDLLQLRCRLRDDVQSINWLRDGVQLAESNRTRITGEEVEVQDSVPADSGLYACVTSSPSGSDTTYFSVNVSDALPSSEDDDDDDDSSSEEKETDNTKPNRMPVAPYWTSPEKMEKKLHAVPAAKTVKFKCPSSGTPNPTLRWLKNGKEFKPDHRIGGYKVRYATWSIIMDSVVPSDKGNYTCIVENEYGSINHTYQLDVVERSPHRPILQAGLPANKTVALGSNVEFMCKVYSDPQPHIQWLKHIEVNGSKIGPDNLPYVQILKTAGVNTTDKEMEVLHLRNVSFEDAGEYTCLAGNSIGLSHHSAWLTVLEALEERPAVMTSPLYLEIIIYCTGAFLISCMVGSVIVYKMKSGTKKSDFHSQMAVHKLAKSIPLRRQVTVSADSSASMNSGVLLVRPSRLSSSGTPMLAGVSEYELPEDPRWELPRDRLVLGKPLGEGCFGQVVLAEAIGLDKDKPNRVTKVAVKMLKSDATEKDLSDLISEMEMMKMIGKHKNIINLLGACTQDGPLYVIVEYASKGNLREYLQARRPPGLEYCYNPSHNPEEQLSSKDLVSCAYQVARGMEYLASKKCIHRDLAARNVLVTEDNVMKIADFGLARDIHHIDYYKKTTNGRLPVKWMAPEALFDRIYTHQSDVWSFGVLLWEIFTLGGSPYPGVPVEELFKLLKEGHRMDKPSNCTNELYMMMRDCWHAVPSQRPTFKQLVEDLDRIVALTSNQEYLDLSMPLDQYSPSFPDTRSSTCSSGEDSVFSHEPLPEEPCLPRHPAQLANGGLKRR

NCI-H226 [3] = experiment: Antiproliferative activity against human NCI-H226 cells assessed as inhibition of cell growth at 10 uM incubated for 48 hrs by MTT assay relative to control; assay type: functional; details: NCI-H226, 48 h
[4] = Induction of apoptosis in gefitinib-insensitive human HCC827GR cells assessed as early apoptotic cells at 10 uM measured after 24 hrs by Annexin-V/propidium iodide staining-based flow cytometric analysis (reference value: 1.9%); assay type: functional
NCI-H226 [5] = experiment: Induction of apoptosis in human NCI-H226 cells assessed as early apoptotic cells at 5 uM measured after 24 hrs by Annexin-V/propidium iodide staining-based flow cytometric analysis (reference value: 0.8%); assay type: functional
[6] = tested on: Epidermal growth factor receptor (Homo sapiens), P00533 [T790M]; experiment: Inhibition of GST-tagged human EGFR T790M mutant expressed in baculovirus at 10 uM using FAM-labelled peptide as substrate pre-incubated for 10 mins followed by substrate addition by mobility shift assay relative to control
[7] = tested on: Epidermal growth factor receptor (Homo sapiens), P00533 [L858R]; experiment: Inhibition of recombinant human EGFR L858R mutant expressed in baculovirus at 10 uM using FAM-labelled peptide as substrate pre-incubated for 10 mins followed by substrate addition by mobility shift assay relative to control
[8] = molecular target: Tyrosine-protein kinase JAK2 (Homo sapiens) (UniProt O60674); experiment: Inhibition of N-terminal GST tagged human JAK2 catalytic domain (826 to 1132 AA) expressed in baculovirus at 10 uM using FAM-labelled peptide as substrate pre-incubated for 10 mins followed by substrate addition by mobility shift assay relative to control
Tyrosine-protein kinase JAK2 (Homo sapiens), sequence (O60674 whole entry, the tested form may be a part): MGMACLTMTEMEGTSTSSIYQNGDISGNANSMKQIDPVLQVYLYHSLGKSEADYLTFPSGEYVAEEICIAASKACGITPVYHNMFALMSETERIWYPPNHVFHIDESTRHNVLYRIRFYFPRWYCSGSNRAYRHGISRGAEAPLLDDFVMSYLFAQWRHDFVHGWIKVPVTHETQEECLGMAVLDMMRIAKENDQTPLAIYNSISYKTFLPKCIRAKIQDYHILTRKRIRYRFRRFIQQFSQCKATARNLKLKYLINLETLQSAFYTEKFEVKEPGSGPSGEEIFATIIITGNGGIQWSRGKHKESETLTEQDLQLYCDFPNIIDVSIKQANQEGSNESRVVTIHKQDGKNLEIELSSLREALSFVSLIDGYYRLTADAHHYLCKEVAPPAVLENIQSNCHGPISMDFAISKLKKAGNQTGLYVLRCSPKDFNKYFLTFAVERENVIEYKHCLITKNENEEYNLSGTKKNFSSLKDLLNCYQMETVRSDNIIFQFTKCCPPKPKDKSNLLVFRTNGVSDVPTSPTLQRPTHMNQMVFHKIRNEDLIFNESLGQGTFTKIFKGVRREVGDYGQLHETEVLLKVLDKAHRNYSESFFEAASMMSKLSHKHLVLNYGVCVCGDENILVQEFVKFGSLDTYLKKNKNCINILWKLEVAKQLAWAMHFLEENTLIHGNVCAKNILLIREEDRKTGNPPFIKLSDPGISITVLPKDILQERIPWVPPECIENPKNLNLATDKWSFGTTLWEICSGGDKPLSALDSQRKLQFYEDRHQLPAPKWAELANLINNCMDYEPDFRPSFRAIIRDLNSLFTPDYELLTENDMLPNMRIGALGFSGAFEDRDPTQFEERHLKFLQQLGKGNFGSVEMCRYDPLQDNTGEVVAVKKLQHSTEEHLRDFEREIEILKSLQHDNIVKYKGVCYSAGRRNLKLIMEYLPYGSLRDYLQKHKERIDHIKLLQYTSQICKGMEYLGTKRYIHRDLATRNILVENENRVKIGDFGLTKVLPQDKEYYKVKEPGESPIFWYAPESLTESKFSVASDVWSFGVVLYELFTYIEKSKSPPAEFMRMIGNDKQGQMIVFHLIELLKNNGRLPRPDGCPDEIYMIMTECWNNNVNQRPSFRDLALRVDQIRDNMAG

[9] = Induction of apoptosis in gefitinib-insensitive human HCC827GR cells assessed as early apoptotic cells at 5 uM measured after 24 hrs by Annexin-V/propidium iodide staining-based flow cytometric analysis (reference value: 1.9%); assay type: functional
[10] = molecular target: T1, Fibroblast growth factor receptor 1; experiment: Inhibition of FGFR1 in gefitinib-insensitive human HCC827GR cells assessed as reduction in FGF-induced Akt phosphorylation upto 10 uM measured after 2 hrs by western blot analysis
[11] = molecular target: Fibroblast growth factor receptor 2 (Homo sapiens) (UniProt P21802); experiment: Inhibition of N-terminal GST tagged human FGFR2 cytoplasmic domain (399 to 821 AA) expressed in baculovirus at 10 uM using FAM-labelled peptide as substrate pre-incubated for 10 mins followed by substrate addition by mobility shift assay relative to control
[12] = molecular target: Mitogen-activated protein kinase 3 (Homo sapiens) (UniProt P27361); experiment: Inhibition of full length N-terminal GST-tagged human ERK1 (1 to 379 AA) expressed in Escherichia coli at 10 uM using FAM-labelled peptide as substrate pre-incubated for 10 mins followed by substrate addition by mobility shift assay relative to control
[13] = Induction of apoptosis in gefitinib-insensitive human HCC827GR cells assessed as necrotic cells at 5 uM measured after 24 hrs by Annexin-V/propidium iodide staining-based flow cytometric analysis (reference value: 5.8%); assay type: functional
Homo sapiens = species: Homo sapiens; experiment: Induction of cell cycle arrest in gefitinib-insensitive human HCC827GR cells assessed as accumulation of cells at G1 measured after 24 hrs by flow cytometry; assay type: functional
[14] = molecular target: RAC-beta serine/threonine-protein kinase (Homo sapiens) (UniProt P31751); experiment: Inhibition of N-terminal GST tagged human AKT2 catalytic domain (120 to 481 AA) expressed in baculovirus at 10 uM using FAM-labelled peptide as substrate pre-incubated for 10 mins followed by substrate addition by mobility shift assay relative to control
RAC-beta serine/threonine-protein kinase (Homo sapiens), sequence (P31751 whole entry, the tested form may be a part): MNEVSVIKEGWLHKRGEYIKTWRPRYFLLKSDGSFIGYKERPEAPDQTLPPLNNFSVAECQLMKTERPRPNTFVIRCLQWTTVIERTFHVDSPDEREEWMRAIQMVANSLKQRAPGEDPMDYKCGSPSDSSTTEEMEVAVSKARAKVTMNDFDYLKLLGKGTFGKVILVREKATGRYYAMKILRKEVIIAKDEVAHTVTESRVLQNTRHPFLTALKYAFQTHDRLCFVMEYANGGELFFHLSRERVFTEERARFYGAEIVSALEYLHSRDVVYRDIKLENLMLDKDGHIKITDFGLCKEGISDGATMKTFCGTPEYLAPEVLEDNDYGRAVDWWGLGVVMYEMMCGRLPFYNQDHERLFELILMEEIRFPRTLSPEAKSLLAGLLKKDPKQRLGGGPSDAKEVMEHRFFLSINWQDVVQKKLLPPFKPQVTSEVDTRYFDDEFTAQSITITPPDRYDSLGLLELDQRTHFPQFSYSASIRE

[15] = molecular target: Mitogen-activated protein kinase 1 (Homo sapiens) (UniProt P28482); experiment: Inhibition of full length N-terminal GST-tagged human ERK2 (1 to 360 AA) expressed in Escherichia coli at 10 uM using FAM-labelled peptide as substrate pre-incubated for 10 mins followed by substrate addition by mobility shift assay relative to control
NCI-H520 [16] = experiment: Antiproliferative activity against human NCI-H520 cells incubated for 48 hrs by MTT assay; assay type: functional, cell-based; details: NCI-H520, 48 h
[17] = molecular target: Mitogen-activated protein kinase 9 (Homo sapiens) (UniProt P45984); experiment: Inhibition of human recombinant full length His-tagged JNK2 expressed in baculovirus expression system at 10 uM using FAM-labelled peptide as substrate pre-incubated for 10 mins followed by substrate addition by mobility shift assay relative to control
Mitogen-activated protein kinase 9 (Homo sapiens), sequence (P45984 whole entry, looked up): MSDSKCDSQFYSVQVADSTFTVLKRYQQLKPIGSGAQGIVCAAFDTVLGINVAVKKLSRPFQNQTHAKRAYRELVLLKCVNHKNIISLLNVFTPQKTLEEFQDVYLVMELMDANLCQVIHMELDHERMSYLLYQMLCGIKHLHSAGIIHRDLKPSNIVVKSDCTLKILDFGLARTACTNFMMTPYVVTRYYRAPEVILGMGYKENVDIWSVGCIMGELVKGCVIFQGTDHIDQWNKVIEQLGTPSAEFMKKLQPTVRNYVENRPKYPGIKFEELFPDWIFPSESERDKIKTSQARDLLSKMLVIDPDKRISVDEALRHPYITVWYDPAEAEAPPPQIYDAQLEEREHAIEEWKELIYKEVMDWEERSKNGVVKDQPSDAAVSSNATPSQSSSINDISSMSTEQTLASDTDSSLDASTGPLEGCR

HCC827 = experiment: Antiproliferative activity against human HCC827 cells incubated for 48 hrs by MTT assay; assay type: functional, cell-based; details: HCC827, 48 h
NCI-H226 [18] = experiment: Induction of apoptosis in human NCI-H226 cells assessed as early apoptotic cells at 10 uM measured after 24 hrs by Annexin-V/propidium iodide staining-based flow cytometric analysis (reference value: 0.8%); assay type: functional
Mus musculus = experiment: Down regulation of EGFR phosphorylation in BALB/c nude mouse xenografted with human HCC827GR cells at 15 mg/kg, ip dosed by western blot analysis; assay type: functional, organism-based
[19] = Tmax in Sprague-Dawley rat at 30 mg/kg, po measured upto 24 hrs by UPLC-MS/MS; assay type: ADME, organism-based; details: in vivo
[20] = Induction of apoptosis in gefitinib-insensitive human HCC827GR cells assessed as late apoptotic cells at 2.5 uM measured after 24 hrs by Annexin-V/propidium iodide staining-based flow cytometric analysis (reference value: 1.5%); assay type: functional
NCI-H520 [21] = experiment: Antiproliferative activity against human NCI-H520 cells assessed as inhibition of cell growth at 10 uM incubated for 48 hrs by MTT assay relative to control; assay type: functional; details: NCI-H520, 48 h
[22] = molecular target: Epidermal growth factor receptor (Homo sapiens, UniProt P00533); experiment: Inhibition of N-terminal GST-tagged human EGFR cytoplasmic domain (669-1210 AA) expressed in baculovirus using FAM-labelled peptide as substrate pre-incubated for 10 mins followed by substrate addition by mobility shift assay
Epidermal growth factor receptor, sequence (P00533 whole entry, the tested form may be a part): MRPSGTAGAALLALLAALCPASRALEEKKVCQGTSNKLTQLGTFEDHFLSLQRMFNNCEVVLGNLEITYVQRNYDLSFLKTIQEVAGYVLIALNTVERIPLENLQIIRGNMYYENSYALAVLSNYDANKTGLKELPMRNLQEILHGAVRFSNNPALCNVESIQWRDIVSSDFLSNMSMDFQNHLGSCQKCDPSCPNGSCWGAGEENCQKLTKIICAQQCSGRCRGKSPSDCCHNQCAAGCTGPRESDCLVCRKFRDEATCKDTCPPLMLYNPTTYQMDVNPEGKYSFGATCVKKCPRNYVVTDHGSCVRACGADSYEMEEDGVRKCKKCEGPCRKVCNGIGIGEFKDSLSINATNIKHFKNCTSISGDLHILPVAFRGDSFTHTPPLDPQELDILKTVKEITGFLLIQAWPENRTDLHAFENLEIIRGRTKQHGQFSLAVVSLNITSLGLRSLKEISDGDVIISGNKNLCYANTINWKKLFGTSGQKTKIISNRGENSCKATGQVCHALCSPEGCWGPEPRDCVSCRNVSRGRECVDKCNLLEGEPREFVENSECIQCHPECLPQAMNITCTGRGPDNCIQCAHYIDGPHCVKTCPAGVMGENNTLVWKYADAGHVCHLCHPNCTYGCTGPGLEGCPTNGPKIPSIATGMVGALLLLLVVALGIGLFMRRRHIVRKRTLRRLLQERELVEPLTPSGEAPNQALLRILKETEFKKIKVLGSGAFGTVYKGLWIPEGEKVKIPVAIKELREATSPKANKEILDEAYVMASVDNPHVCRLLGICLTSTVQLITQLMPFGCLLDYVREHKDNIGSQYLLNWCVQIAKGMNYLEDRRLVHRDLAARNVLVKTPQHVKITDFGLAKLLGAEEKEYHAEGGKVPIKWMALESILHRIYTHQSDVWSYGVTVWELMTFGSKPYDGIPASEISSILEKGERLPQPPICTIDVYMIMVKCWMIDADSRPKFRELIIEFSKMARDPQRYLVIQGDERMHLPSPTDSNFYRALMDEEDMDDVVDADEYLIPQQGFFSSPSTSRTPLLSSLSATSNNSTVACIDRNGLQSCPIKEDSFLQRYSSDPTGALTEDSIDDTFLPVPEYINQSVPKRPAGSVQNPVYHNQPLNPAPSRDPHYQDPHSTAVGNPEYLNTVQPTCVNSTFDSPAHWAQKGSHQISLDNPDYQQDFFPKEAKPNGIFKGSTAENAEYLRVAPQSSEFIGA

[23] = molecular target: Vascular endothelial growth factor receptor 3 (Homo sapiens) (UniProt P35916); experiment: Inhibition of N-terminal GST tagged human FLT4 cytoplasmic domain (798 to 1298 AA) expressed in baculovirus at 10 uM using FAM-labelled peptide as substrate pre-incubated for 10 mins followed by substrate addition by mobility shift assay relative to control
NCI-H226 [24] = experiment: Antiproliferative activity against human NCI-H226 cells incubated for 48 hrs by MTT assay; assay type: functional, cell-based; details: NCI-H226, 48 h
[25] = AUC (0 to 24 hrs) in Sprague-Dawley rat at 30 mg/kg, po measured upto 24 hrs by UPLC-MS/MS; assay type: ADME, organism-based; design: time < 24 hr, dose 30 mg/kg, route oral; details: in vivo

## COc1ccc(OC)c(Nc2cc(NC(=O)Nc3c(Cl)cccc3Cl)ncn2)c1
[1]
  inhibition: 12.3%
[2]
  inhibition: Active
NCI-H226 [3]
  inhibition at 10 µM: 81.7%
[4]
  Activity: 13%
NCI-H226 [5]
  Activity: 6.3%
[6]
  inhibition: 86.8%
[7]
  inhibition: 96.9%
[8]
  inhibition: 13.9%
[9]
  Activity: 1.7%
[10]
  inhibition: Active
[11]
  inhibition: 82.5%
[12]
  inhibition: 8.2%
[13]
  Activity: 4.1%
Homo sapiens
  Activity: Active
[14]
  inhibition: 12.7%
[15]
  inhibition: 9.1%
NCI-H520 [16]
  IC50: 3.03 µM
[17]
  inhibition: 0.85%
HCC827
  IC50: 1.25 µM
NCI-H226 [18]
  Activity: 4.4%
Mus musculus
  Activity: Active
[19]
  Tmax: 1.5 h
[20]
  Activity: 13.5%
NCI-H520 [21]
  inhibition at 10 µM: 74%
[22]
  IC50: 0.202 µM
[23]
  inhibition: 43.6%
NCI-H226 [24]
  IC50: 2.26 µM
[25]
  AUC(0-t) at 24 h: 9690 ng·h/mL
